Patent US9649295B2, “Chemical inhibitors of soluble adenylyl cyclase (sAC)” (Cornell Research Foundation, Inc., priority 2004, dated 2017)
Entries after “also recorded” stand apart in the source; their conditions may differ.

Experiments:
[1] = glucose tolerance test in C57BL/6 mice; format: in vivo, mouse
Procedure: C57B1/6 adult male mice were maintained on a 12 hour light/dark cycle, with free access to water and standard laboratory chow (Research Animal Resource Center, Weill Medical College of Cornell University). Animals were treated in accordance with our institutions guidelines. After a 14-16 hour overnight fast with free access to water, blood was removed from the tail vein for glucose (Hemocue B-Glucose Microcuvette and Analyzer; Hemocue, Inc., Lake Forest, Calif.) and insulin (Rat/Mouse Insulin ELISA Kit; Linco Research) measurements. Mice then received an i.p injection of 100 mM KH7 (100 μmoles/kg) or vehicle control. Twenty minutes later, both groups were injected i.p. with 1 g/kg glucose (20% solution). Blood samples were taken from the tail vein at times indicated, and glucose and insulin were quantitated according to manufacturer's instructions.

[2] = toxicity observation and post-mortem analysis in mice; format: in vivo, mouse; conditions: single injection
Rap1 activation = assay: NGF induced Rap1 activation in PC12 cells; format: cell-based; conditions: 15 minutes, KH7 50 μM
Procedure: FIG. 18 illustrates that NGF induced Rap1 activation is blocked by KH7 and rescued by membrane permeable cAMP. PC12 cells were stimulated with or without nerve growth factor (NGF) for 15 minutes in the presence or absence of KH7 (50 μM) and 1 mM 8Br-cAMP.

CC(Sc1nc2ccccc2[nH]1)C(=O)N/N=C/c1cc(Br)ccc1O (stereo not shown) [KH7]
glucose-induced serum insulin release ([1]; 100 μmoles/kg KH7 i.p., 1 g/kg glucose i.p.): no statistically significant glucose-induced insulin release was detected | glucose tolerance ([1]; 100 μmoles/kg [49 mg/kg] KH7 i.p., 1 g/kg glucose i.p.): glucose intolerant | glucose tolerance test one week after injection ([1]; one week after KH7, no further drug, n=2): normal glucose tolerance and insulin response | behavior or stressful responses to injection [2]: did not elicit any behavior or stressful responses inconsistent with a simple saline injection | toxicity to mice [2]: did not appear to be toxic | anatomical, histological, and blood post-mortem analysis ([2]; within 48 hours after drug treatment): no significant toxicology or histological pathology | effect on NGF induced Rap1 activation (Rap1 activation): block NGF induced Rap1 activation; also recorded: blocked
